Experimental data reported in ChEMBL document CHEMBL4371004, “A-C Estrogens as Potent and Selective Estrogen Receptor-Beta Agonists (SERBAs) to Enhance Memory Consolidation under Low-Estrogen Conditions” (J Med Chem, 2018).
Calls of active or inactive are those of the source. The rule behind the calls is not given here.

Assays:
[1] = target: T1, Glucocorticoid receptor (Homo sapiens) (UniProt P04150); test: Agonist activity at GAL4 DNA binding domain fused glucocorticoid receptor ligand binding domain (unknown origin) at 0.25 to 25 uM by FRET-based assay
T1 sequence (whole entry): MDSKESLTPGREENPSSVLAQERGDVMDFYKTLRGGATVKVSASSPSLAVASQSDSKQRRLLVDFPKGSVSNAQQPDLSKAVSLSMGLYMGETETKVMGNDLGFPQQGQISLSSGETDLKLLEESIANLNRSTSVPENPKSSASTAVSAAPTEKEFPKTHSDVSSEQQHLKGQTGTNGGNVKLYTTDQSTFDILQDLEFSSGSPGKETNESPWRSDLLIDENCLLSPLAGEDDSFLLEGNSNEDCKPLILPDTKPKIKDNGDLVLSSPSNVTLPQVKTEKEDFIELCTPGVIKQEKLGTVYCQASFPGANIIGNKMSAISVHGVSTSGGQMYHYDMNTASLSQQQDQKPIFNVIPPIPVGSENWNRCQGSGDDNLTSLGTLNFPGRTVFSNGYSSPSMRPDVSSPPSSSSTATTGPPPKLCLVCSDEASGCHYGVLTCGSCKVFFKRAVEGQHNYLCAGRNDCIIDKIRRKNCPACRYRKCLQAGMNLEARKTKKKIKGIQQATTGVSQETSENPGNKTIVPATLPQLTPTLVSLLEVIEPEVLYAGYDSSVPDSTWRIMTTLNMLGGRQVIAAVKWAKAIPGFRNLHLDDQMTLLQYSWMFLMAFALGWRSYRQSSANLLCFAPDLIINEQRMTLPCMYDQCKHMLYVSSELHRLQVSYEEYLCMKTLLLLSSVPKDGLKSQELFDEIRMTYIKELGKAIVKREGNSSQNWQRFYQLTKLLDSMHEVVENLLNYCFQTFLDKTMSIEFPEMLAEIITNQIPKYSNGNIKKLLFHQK

[2] = target: T2, Peroxisome proliferator-activated receptor delta (Homo sapiens) (UniProt Q03181); test: Agonist activity at GAL4 DNA binding domain fused PPARdelta (unknown origin) at 0.25 to 25 uM by FRET-based assay
T2 sequence (whole entry): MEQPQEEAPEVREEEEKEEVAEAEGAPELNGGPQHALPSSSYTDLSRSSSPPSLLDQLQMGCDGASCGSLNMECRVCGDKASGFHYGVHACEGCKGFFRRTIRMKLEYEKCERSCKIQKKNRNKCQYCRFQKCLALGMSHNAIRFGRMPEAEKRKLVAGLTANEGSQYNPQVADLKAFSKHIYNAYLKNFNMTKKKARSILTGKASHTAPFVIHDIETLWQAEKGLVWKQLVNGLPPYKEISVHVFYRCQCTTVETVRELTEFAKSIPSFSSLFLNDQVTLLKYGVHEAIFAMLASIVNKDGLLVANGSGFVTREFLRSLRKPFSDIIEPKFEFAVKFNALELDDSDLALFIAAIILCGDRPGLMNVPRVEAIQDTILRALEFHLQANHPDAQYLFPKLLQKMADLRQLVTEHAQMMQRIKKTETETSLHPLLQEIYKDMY

[3] = target: T3, Progesterone receptor (Homo sapiens) (UniProt P06401); test: Agonist activity at GAL4 DNA binding domain fused progesterone receptor ligand binding domain (unknown origin) at 0.25 to 25 uM by FRET-based assay
T3 sequence (whole entry): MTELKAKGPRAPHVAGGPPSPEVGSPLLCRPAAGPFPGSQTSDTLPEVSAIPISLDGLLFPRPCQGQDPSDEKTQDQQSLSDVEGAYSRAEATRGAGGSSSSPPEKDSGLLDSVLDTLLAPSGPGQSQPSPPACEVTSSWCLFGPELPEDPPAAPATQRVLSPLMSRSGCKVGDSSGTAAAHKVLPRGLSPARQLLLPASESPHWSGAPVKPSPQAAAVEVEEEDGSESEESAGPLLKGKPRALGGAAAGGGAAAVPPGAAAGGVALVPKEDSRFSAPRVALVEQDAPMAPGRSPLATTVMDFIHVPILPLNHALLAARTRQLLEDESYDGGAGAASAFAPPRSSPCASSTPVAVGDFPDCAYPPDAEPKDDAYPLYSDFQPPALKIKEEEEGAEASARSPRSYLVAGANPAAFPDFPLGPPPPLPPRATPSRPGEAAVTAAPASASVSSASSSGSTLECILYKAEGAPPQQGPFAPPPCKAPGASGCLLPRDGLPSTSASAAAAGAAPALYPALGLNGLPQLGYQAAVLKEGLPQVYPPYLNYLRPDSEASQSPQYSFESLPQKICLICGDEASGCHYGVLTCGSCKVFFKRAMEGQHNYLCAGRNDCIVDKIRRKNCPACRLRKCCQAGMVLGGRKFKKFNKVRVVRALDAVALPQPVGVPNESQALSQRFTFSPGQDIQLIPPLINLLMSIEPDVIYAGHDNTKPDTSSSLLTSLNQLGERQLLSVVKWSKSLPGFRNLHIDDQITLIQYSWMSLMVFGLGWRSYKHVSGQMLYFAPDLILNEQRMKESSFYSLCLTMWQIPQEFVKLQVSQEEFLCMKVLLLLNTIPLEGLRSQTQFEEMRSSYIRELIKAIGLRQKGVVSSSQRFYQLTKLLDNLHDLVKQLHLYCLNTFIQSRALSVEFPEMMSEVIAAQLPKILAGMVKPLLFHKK

Mus musculus [4] = test: Memory enhancement effect in C57BL/6 mouse assessed as time spent with moved object at 10 pg administered as dorsal hippocampal infusion by novel object recognition test; format: functional
Mus musculus [5] = test: Memory enhancement effect in C57BL/6 mouse assessed as time spent with moved object at 100 pg administered as dorsal hippocampal infusion by novel object recognition test; format: functional
Mus musculus [6] = test: Memory enhancement effect in C57BL/6 mouse assessed as time spent with novel object at 10 pg administered as dorsal hippocampal infusion by novel object recognition test; format: functional
Mus musculus [7] = test: Memory enhancement effect in C57BL/6 mouse assessed as time spent with novel object at 100 pg administered as dorsal hippocampal infusion by novel object recognition test; format: functional
Mus musculus [8] = test: Memory enhancement effect in C57BL/6 mouse assessed as time spent with moved object at 5 mg/kg, ip by novel object recognition test; format: functional
Mus musculus [9] = test: Memory enhancement effect in C57BL/6 mouse assessed as time spent with novel object at 5 mg/kg, ip by novel object recognition test; format: functional
Mus musculus [10] = test: Memory enhancement effect in C57BL/6 mouse assessed as time spent with moved object at 5 mg/kg, po administered via gavage by object recognition test; format: functional
Cytochrome P450 3A4 = Cytochrome P450 3A4 (Homo sapiens, UniProt P08684)
Chain of Cytochrome P450 3A4 (P08684 whole entry): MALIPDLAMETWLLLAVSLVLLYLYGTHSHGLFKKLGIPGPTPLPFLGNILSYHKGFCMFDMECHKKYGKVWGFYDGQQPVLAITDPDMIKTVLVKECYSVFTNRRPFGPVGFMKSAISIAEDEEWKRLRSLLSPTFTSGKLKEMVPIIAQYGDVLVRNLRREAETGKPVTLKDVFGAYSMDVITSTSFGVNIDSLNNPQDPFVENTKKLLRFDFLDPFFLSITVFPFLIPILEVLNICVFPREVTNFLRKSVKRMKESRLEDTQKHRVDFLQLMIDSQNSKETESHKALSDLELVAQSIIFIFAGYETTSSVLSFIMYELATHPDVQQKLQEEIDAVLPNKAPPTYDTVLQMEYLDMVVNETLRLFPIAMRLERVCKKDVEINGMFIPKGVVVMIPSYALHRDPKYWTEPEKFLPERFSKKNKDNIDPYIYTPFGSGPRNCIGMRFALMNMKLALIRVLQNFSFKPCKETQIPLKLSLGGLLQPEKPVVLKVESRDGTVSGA
Description: Inhibition of human recombinant CYP3A4 preincubated for 10 mins followed by NADPH addition and measured after 10 to 30 mins by P450-Glo luminescence assay

OC[C@H]1CC[C@H](c2ccc(O)cc2)CC1
Activity [1]: inactive | Activity [2]: inactive | Activity [3]: inactive | Time (Mus musculus [4]): 1.19 s | Time (Mus musculus [5]): 10.3 s | Time (Mus musculus [6]): 0.88 s | Time (Mus musculus [7]): 3.16 s | Time (Mus musculus [8]): 2.78 s | Time (Mus musculus [9]): 1.65 s | Time (Mus musculus [10]): 5.06 s | EC50 (Cytochrome P450 3A4): 89 µM
